# Measurements from US9193731B2, “Antimicrobial compounds and methods of making and using the same” (Melinta Therapeutics, Inc., priority 2009, dated 2015).
# Test system: Escherichia coli strain ATCC25922
# Experiment: standard microdilution assay to determine minimum inhibitory concentrations (MICs)
# Assay type: cell-based
# Settings: Escherichia coli strain ATCC25922, microdilution
# Summary of the method: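 Broth microdilution MIC against E. coli ATCC25922, following CLSI protocols, typically in a 100 microliter final volume. Results reported as +/− relative to a 16 micrograms/ml cutoff.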
row,Compound,E. coli ATCC25922 MIC
1,N=C(N)NCCCNCc1ccc(-n2cc3cc(C4CCN(CC5CNC(=O)O5)C4)[nH]c3nc2=O)cc1 (stereo not drawn) [Compound 1457],− (a “−” indicates that the compound has an MIC value greater than 16 micrograms/ml)
2,N=C(N)NCCCNCc1ccc(-n2cc3cc(-c4ccc(S(=O)(=O)N(Cc5cc(-c6ccc(Cl)cc6)on5)C5CCNCC5)cc4)[nH]c3nc2=O)cc1 [Compound 803],+ (a “+” indicates that the compound has an MIC value of 16 micrograms/ml or less)
3,N=C(N)NCCCNCc1ccc(-n2cc3cc(-c4cc(C(=O)Nc5cccc(F)c5)cc(N5CCNCC5)c4)[nH]c3nc2=O)cc1 [Compound 982],+ (a “+” indicates that the compound has an MIC value of 16 micrograms/ml or less)
4,N=C(N)NCCCNCc1ccc(-n2cc3cc(-c4cc(OC(F)(F)F)cc(S(=O)(=O)CCCN)c4)[nH]c3nc2=O)cc1 [Compound 2052a],+ (a “+” indicates that the compound has an MIC value of 16 micrograms/ml or less)
5,CC(CN)CN1CCC(c2cc3cn(-c4ccc(CNCCCNC(=N)N)cc4)c(=O)nc3[nH]2)C1 (stereo not drawn) [Compound 2038a],+ (a “+” indicates that the compound has an MIC value of 16 micrograms/ml or less)
6,CN(CCc1ccccn1)C(=O)c1cc(-c2cc3cn(-c4ccc(CNCCCNC(=N)N)cc4)c(=O)nc3[nH]2)cc(N2CCNCC2)c1 [Compound 964],− (a “−” indicates that the compound has an MIC value greater than 16 micrograms/ml)
7,N=C(N)NCCCNCc1ccc(-n2cc3cc(-c4ccc(C[C@H](N)CO)cc4)[nH]c3nc2=O)cc1 [Compound 907],+ (a “+” indicates that the compound has an MIC value of 16 micrograms/ml or less)
8,N=C(N)NCCCNCc1ccc(-n2cc3cc(-c4cc(C(=O)N5CCC(F)(F)CC5)cc(N5CCNCC5)c4)[nH]c3nc2=O)cc1 [Compound 1074],+ (a “+” indicates that the compound has an MIC value of 16 micrograms/ml or less)
9,N=C(N)NCCCNCc1ccc(-n2cc3cc(-c4ccc(S(=O)(=O)N(CCCc5cccnc5)C5CCNCC5)cc4)[nH]c3nc2=O)cc1 [Compound 801],+ (a “+” indicates that the compound has an MIC value of 16 micrograms/ml or less)
10,N=C(N)NCCCNCc1ccc(-n2cc3cc(C4CCN(CC(F)CN)C4)[nH]c3nc2=O)cc1 (stereo not drawn) [Compound 2000a],+ (a “+” indicates that the compound has an MIC value of 16 micrograms/ml or less)
11,NCCCCOc1ccc(-c2cn3cc(-c4ccc(S(=O)(=O)NC5CCNCC5)cc4)[nH]c3nc2=O)cc1 [Compound 824],− (a “−” indicates that the compound has an MIC value greater than 16 micrograms/ml)
12,N=C(N)NCCCNCc1ccc(-n2cc3cc(-c4cc(Cl)cc(CCCCN)c4)[nH]c3nc2=O)cc1 [Compound 2068a],+ (a “+” indicates that the compound has an MIC value of 16 micrograms/ml or less)
13,N=C(N)NCCCNC(=O)c1ccc(C2N=c3cc(-c4ccc(S(=O)(=O)N(CCCN5CCCCC5)C5CCNCC5)cc4)[nH]c3=NC2=O)cc1 (stereo not drawn) [Compound 1017],+ (a “+” indicates that the compound has an MIC value of 16 micrograms/ml or less)
14,N=C(N)NCCCNCc1ccc(-n2cc3cc(-c4cccc(S(=O)(=O)N(Cc5ccc(Cl)c(Cl)c5)C5CCNCC5)c4)[nH]c3nc2=O)cc1 [Compound 979],+ (a “+” indicates that the compound has an MIC value of 16 micrograms/ml or less)
15,CN1CCN(CCCN(C2CCNCC2)S(=O)(=O)c2ccc(-c3cc4cn(-c5ccc(CNCCCNC(=N)N)cc5)c(=O)nc4[nH]3)cc2)CC1 [Compound 899],+ (a “+” indicates that the compound has an MIC value of 16 micrograms/ml or less)
16,COC(CN)COc1cccc(-c2cc3cn(-c4ccc(CNCCCNC(=N)N)cc4)c(=O)nc3[nH]2)c1 (stereo not drawn) [Compound 1400],+ (a “+” indicates that the compound has an MIC value of 16 micrograms/ml or less)
17,CSCc1cc(CCCCN)cc(-c2cc3cn(-c4ccc(CNCCCNC(=N)N)cc4)c(=O)nc3[nH]2)c1 [Compound 2083a],+ (a “+” indicates that the compound has an MIC value of 16 micrograms/ml or less)
18,N#Cc1cc(CCCCN)cc(-c2cc3cn(-c4ccc(CNCCCNC(=N)N)cc4)c(=O)nc3[nH]2)c1 [Compound 2084a],+ (a “+” indicates that the compound has an MIC value of 16 micrograms/ml or less)
19,CN(Cc1cccc(F)c1)Cc1cc(-c2cc3cn(-c4ccc(CNCCCNC(=N)N)cc4)c(=O)nc3[nH]2)cc(N2CCNCC2)c1 [Compound 1049],+ (a “+” indicates that the compound has an MIC value of 16 micrograms/ml or less)
20,N=C(N)NCCCNCc1ccc(-n2cc3cc(-c4cccc(S(=O)(=O)N(CCCC5CCCC5)C5CCNCC5)c4)[nH]c3nc2=O)cc1 [Compound 1047],+ (a “+” indicates that the compound has an MIC value of 16 micrograms/ml or less)
21,CSc1cc(CCCCN)cc(-c2cc3cn(-c4ccc(CNCCCNC(=N)N)cc4)c(=O)nc3[nH]2)c1 [Compound 2066a],+ (a “+” indicates that the compound has an MIC value of 16 micrograms/ml or less)
22,N=C(N)NCCCNCc1ccc(-n2cc3cc(-c4ccc(S(=O)(=O)N(CCOc5ccc(F)cc5)C5CCOCC5)cc4)[nH]c3nc2=O)cc1 [Compound 880],− (a “−” indicates that the compound has an MIC value greater than 16 micrograms/ml)
23,N=C(N)NCCCNC(=O)c1ccc(-n2cc3cc(-c4cccc(S(=O)(=O)N(CCCn5ccc(C(F)(F)F)n5)C5CCNCC5)c4)[nH]c3nc2=O)cc1 [Compound 1124],− (a “−” indicates that the compound has an MIC value greater than 16 micrograms/ml)
24,CS(=O)(=O)NCc1cc(CCCCN)cc(-c2cc3cn(-c4ccc(CNCCCNC(=N)N)cc4)c(=O)nc3[nH]2)c1 [Compound 2090a],+ (a “+” indicates that the compound has an MIC value of 16 micrograms/ml or less)
25,N=C(N)NCCCNCc1ccc(-n2cc3cc(-c4cc(C(=O)N(CCO)CCO)cc(N5CCNCC5)c4)[nH]c3nc2=O)cc1 [Compound 895],+ (a “+” indicates that the compound has an MIC value of 16 micrograms/ml or less)
26,CC(C)(C)NCC(=O)Nc1ccc(-c2cc3cn(-c4ccc(CNCCCN=C(N)N)cc4)c(=O)nc3[nH]2)cc1 [Compound 1218],+ (a “+” indicates that the compound has an MIC value of 16 micrograms/ml or less)
27,COc1cc(-n2cc3cc(-c4cccc(OCC(F)CN)c4)[nH]c3nc2=O)ccc1CNCCCNC(=N)N (stereo not drawn) [Compound 1391],+ (a “+” indicates that the compound has an MIC value of 16 micrograms/ml or less)

# Same assay, conditions: Escherichia coli, ATCC25922, Escherichia coli strain ATCC25922, microdilution; read-out: E. coli ATCC25922 MIC
row,MIC [µg/mL],Compound
1,> 16,O=c1nc2[nH]c(-c3ccc(F)cc3)cc2cn1C1CCNC1 (stereo not drawn) [Compound 561]
2,> 16,N=C(N)NCCCOCc1ccc(-c2cn3cc(-c4ccc(Br)cc4)[nH]c3nc2=O)cc1 [Compound 901]
3,< 16,N=C(N)NCCCNCc1ccc(-c2cn3cc(-c4ccc(S(=O)(=O)NC5CCNCC5)cc4)[nH]c3nc2=O)cc1 [Compound 772]
4,> 16,O=c1nc2[nH]c(-c3ccc(S(=O)(=O)NC4CCNCC4)cc3F)cc2cn1-c1ccc(CNCCCF)c(F)c1 [Compound 279]
5,> 16,N=C(N)NCCCNCc1ccc(-c2cn3cc(-c4ccc(C(=O)N5CCC(F)(F)CC5)cc4)[nH]c3nc2=O)cc1 [Compound 704]
6,> 16,NCCCCN1CCC(n2cc3cc(-c4ccc(F)cc4)[nH]c3nc2=O)C1 (stereo not drawn) [Compound 559]
7,> 16,NCc1ccc(-n2cc3cc(-c4ccc(S(=O)(=O)N(CCCc5ccc(O)cc5)C5CCNCC5)cc4)[nH]c3nc2=O)cc1 [Compound 1081]
8,> 16,CNCc1ccc(-n2cc3cc(-c4ccc(S(=O)(=O)N(CCCn5cccn5)C5CCNCC5)cc4)[nH]c3nc2=O)cc1 [Compound 1020]
9,> 16,NCCCOCc1ccc(-c2cn3cc(-c4ccc(C(=O)NC5CCNCC5)cc4)[nH]c3nc2=O)cc1 [Compound 927]
10,> 16,COc1cccc(CCCN(C2CCNCC2)S(=O)(=O)c2ccc(-c3cc4cn(-c5ccc(CN)cc5)c(=O)nc4[nH]3)cc2)c1 [Compound 1036]
11,> 16,NCCCCN1CC(n2cc3c(nc2=O)[nH]c2ccccc23)C1 [Compound 590]
12,> 16,NCCCNCc1ccc(-n2cc3cc(CN4CCS(=O)(=O)CC4)[nH]c3nc2=O)cc1 [Compound 613]
13,> 16,N=C(N)NCCCNCc1ccc(-n2cc3cc(CCN4CCS(=O)(=O)CC4)[nH]c3nc2=O)cc1 [Compound 785]
14,< 16,NC(=O)/N=C(\N)NCCCNCc1ccc(-n2cc3cc(-c4ccc(C(=O)NC5CCNCC5)cc4)[nH]c3nc2=O)cc1 [Compound 228]
15,> 16,"NCCCNCc1ccc(-c2cn3cc[nH]c3nc2=O)cc1 [Compound 563, 6-{4-[(3-Amino-propylamino)-methyl]-phenyl}-1H-imidazo[1,2-a]pyrimidin-7-one]"
16,> 16,O=c1nc2[nH]c(-c3ccc(S(=O)(=O)NC4CCNCC4)c(Cl)c3)cc2cn1-c1ccc(CNCCCF)cc1 [Compound 261]
17,> 16,NCCCN(CCCN)Cc1ccc(-n2cc3cc(Cn4nnc5ccccc54)[nH]c3nc2=O)cc1 [Compound 182]
18,< 16,N=C(N)NCCCNCc1ccc(-n2cc3cc(-c4cc(CCCCN)cc(C(F)(F)F)c4)[nH]c3nc2=O)cc1 [Compound 2029a]
19,< 16,N=C(N)NCCCNCc1ccc(-c2cn3cc(-c4ccc(C(=O)N5CCNC(=O)C5)cc4)[nH]c3nc2=O)cc1 [Compound 693]
20,< 16,NCCCNCc1ccc(-n2cc3cc(CCNC4CCNCC4)[nH]c3nc2=O)cc1 [Compound 687]
21,< 16,N=C(N)NCCCNCc1ccc(-n2cc3cc(-c4cccc(N5CCNCC5)c4)[nH]c3nc2=O)cc1 [Compound 655]
22,> 16,NCCCNCc1ccc(-c2cn3nc(NC(=O)c4ccc(F)cc4)[nH]c3nc2=O)cc1 [Compound 709]
23,< 16,N=C(N)NCCCNCc1ccc(-n2cc3cc(C4CN(C(=N)N)CCO4)[nH]c3nc2=O)cc1 (stereo not drawn) [Compound 1335]

row,Compound,MIC [µg/mL]
1,CN1C2CCC1CC(NC(=O)c1ccc(-c3cc4cn(-c5ccc(CN(CCCN)CCCN)cc5)c(=O)nc4[nH]3)cc1)C2 (stereo not drawn) [Compound 206],< 16
